Consider 4 compounds from publication PMC6471218, “Anti-Diabetic Activity of 2,3,6-Tribromo-4,5-Dihydroxybenzyl Derivatives from Symphyocladia latiuscula through PTP1B Downregulation and α-Glucosidase Inhibition” (Marine Drugs, 2019).

Series [1] deals with T1, Human recombinant protein tyrosine phosphatase (PTP1B) (Homo sapiens, UniProt P18031).
T1 sequence (P18031 1-435): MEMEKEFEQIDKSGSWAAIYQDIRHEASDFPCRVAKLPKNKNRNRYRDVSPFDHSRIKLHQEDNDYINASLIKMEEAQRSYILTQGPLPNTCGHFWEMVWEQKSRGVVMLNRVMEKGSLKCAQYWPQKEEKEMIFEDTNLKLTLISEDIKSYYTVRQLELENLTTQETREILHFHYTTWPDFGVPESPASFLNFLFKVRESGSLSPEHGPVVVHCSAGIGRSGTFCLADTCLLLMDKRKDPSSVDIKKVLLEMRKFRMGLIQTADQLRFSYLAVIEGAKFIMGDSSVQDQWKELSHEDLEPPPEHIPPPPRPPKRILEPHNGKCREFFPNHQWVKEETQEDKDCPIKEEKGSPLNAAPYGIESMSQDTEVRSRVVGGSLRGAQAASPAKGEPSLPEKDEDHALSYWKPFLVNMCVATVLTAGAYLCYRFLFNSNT
Description: PTP1B inhibitory assay with pNPP substrate. The series is classed as biochemical. The text has this:
(§1) The initial step in evaluating anti-diabetic secondary metabolites from Symphyocladia latiuscula was the evaluation of PTP1B and α-glucosidase inhibition potentials of methanol extract and fractions obtained by MeOH extract partition with different solvents using pNPP and pNPG as substrates, respectively. Enzyme inhibition levels are expressed as mean IC50 values with standard deviation.
(§2) Human recombinant protein tyrosine phosphatase (PTP1B) was purchased from Biomol International LP (Plymouth Meeting, PA, USA). Fetal bovine serum (FBS), minimum essential medium (MEM), sodium pyruvate, penicillin-streptomycin, and nonessential amino acids were purchased from Gibco-BRL Life Technologies (Grand Island, NY, USA). The fluorescent D-glucose analogue and 2-NBDG was purchased from Life Technologies (Carlsbad, CA, USA). Human insulin was purchased from Eli Lilly (Fegersheim, France). All other chemicals and solvents used were of reagent grade and acquired from commercial sources.
The potential for MeOH extract, solvent-soluble fractions, and isolated compounds to inhibit PTP1B enzyme activity was evaluated using the pNPP substrate. Experimental conditions and laboratory procedures were similar to those published in our previous report.

Series [2] addresses T2, yeast α-glucosidase (Saccharomyces cerevisiae, UniProt P53341).
T2 construct: purchased Sigma-Aldrich Co. (St. Louis, MO, USA)
Description: biochemical. It is filed as biochemical. The note with it: for Enhancement of α-glucosidase inhibitory activity compared to 2: ratio of IC50 values.
From the text: as §1, §2
The α-glucosidase inhibition assay procedure, previously reported by Li et al., was followed to measure the release of […] at 405 nm using a microplate spectrophotometer (Molecular Devices).

Series [3] concerns the target T1, Human recombinant protein tyrosine phosphatase (PTP1B). Description: Kinetic study against PTP1B (Lineweaver–Burk and Dixon plots). The note with it: for PTP1B Inhibition Type: determined from Lineweaver–Burk plots. It is filed as biochemical. Here is the method:
(§3) In competitive inhibition mode (Figure 2C), double reciprocal plots yielded a group of lines with the same y-intercept (constant Vmax) but different x-intercepts (varying Km values). […] The double reciprocal plots of α-glucosidase enzyme inhibition by 3 yielded a group of lines intersecting at a single point in the second quadrant.
(§4) The modes of enzyme inhibition were evaluated by monitoring the effects of different concentrations of the substrates (1, 2, or 4 mM pNPP for PTP1B and 1.25, 2.5, or 5 mM pNPG for α-glucosidase) on Dixon plots (single reciprocal plots). […] The enzymatic procedure consisted of the same aforementioned assay method. The inhibition constants (Ki) were determined by interpreting Dixon plots, where the value of the x-intercept indicated the value of −Ki.

Series [4] has as its target T2, yeast α-glucosidase. In words: Kinetic study against α-glucosidase (Lineweaver–Burk and Dixon plots). The note with it: for α-Glucosidase Inhibition Type: determined from Lineweaver–Burk plots. It is filed as biochemical. Here is the method: as §3, §4
For the next series, the system named is HepG2 cells. In words: MTT cytotoxicity assay in HepG2 cells. The note with it: 25, 50 and 100 μM, 24 h. The series is classed as cell-based, human. Here is the method: Cytotoxicity of bromophenols on HepG2 cells was evaluated using a 3-(4,5-dimethylthiazol-2-yl)-2,5-diphenyl tetrazolium bromide (MTT) assay. […] So, considering enzyme inhibition activity and toxicity in HepG2 cells, we performed cell-based experiments at 5, 10, and 20 µM concentrations.
Figure 7 Effect of bromophenols 1–3 on cell viability in HepG2 cells. Cell viability was determined using the 3-(4,5-dimethylthiazol-2-yl)-2,5-diphenyl tetrazolium bromide (MTT) method. Cells were pretreated with the indicated concentrations (25, 50, and 100 μM) of test compounds for 24 h. Data shown represent mean ± standard deviation of triplicate experiments. ^a p < 0.05 indicates significant differences from the control group.
(§5) HepG2 (human hepatocarcinoma) cells obtained from the American Type Culture Collection (HB-8065; Manassas, VA, USA) were maintained in 10% FBS MEM at 37 °C in a humidified atmosphere with 5% CO2. Cytotoxicity was evaluated using the MTT assay. Following previously described methods, an insulin-resistant HepG2 cell model was established. All other experimental conditions and procedures were similar to those reported in our previous paper.

Series [5] has as its system insulin-resistant HepG2 cells. In words: 2-NBDG glucose uptake assay in insulin-resistant HepG2 cells. The note with it: 24 h; for Insulin-stimulated glucose uptake compared with rosiglitazone 10 µM (112%): 20 µM. The series is classed as cell-based, human. As to the method:
Figure 8 Effect of bromophenols 1–3 on insulin-stimulated glucose uptake in insulin-resistant HepG2 cells. The glucose uptake assay was performed using the fluorescent D-glucose analogue 2-NBDG and 10^−6 mol/L insulin was to induce insulin resistance. Insulin-resistant HepG2 cells were treated with the indicated concentrations of test compounds or rosiglitazone for 24 h, and insulin-stimulated 2-NBDG uptake was measured. Values represent the mean ± standard deviation of triplicate experiments. ^a p < 0.01 indicates significant differences from the control group; ^b p < 0.05, ^c p < 0.01, and ^d p < 0.001 indicate significant differences from the insulin-resistant group.
as §5
The relative percent glucose uptake upon sample treatment in IR-HepG2 cells was evaluated by a flourimetric method using the fluorescent D-glucose analog 2-NBDG and measured on a fluorescence microplate reader (FL×800, Bio-Tek Instruments, Inc., Winooski, VT, USA) at 485 nm excitation and 528 nm emission wavelengths. Detailed experimental conditions and procedures are reported in our previous publication.

The next series has as its target α-glucosidase. On the set-up: method as in ref 24, 34 (Kurihara et al.). Particulars: different enzyme and pNPG concentrations; 34 (Kurihara et al.); read-out: 50% α-glucosidase enzyme inhibition concentration (literature); cited from earlier work.
The test system of a further series is PTP1B. On the set-up: method as in ref 35 (Liu et al.). Particulars: ref 35 (Liu et al.); read-out: PTP1B IC50 (literature); cited from earlier work.
The test system of series [6] is PTP1B expression in insulin-resistant HepG2 cells. In words: PTP1B expression level in insulin-resistant HepG2 cells (western blot). It is filed as cell-based, human. Particulars: 24 h treatment, then 100 nM insulin 30 min. As to the method: Figure 9 Effects of bromophenol 1 (A), 2 (B), and 3 (C) on protein tyrosine phosphatase 1B (PTP1B) expression levels in insulin-resistant HepG2 cells. Western blotting was performed and protein band intensities were quantified by densitometric analysis. Upper panels display representative blots. Equal protein loading was ensured and normalized against β-actin levels. Values represent the mean ± standard deviation of three independent experiments; ^a p < 0.001 indicates significant differences from the control group; ^b p < 0.05, ^c p < 0.01, and ^d p < 0.001 indicate significant differences from the insulin-resistant group.
Insulin-resistant HepG2 cells were exposed to a range of concentrations of 1–3 or rosiglitazone (10 μM) in 24-well plates for 24 h followed by stimulation with 100 nM insulin diluted in SFMEM for 30 min. Cells were then washed twice with ice cold PBS, collected, and lysed with sample buffer. Protein was quantified by the modified Bradford protein assay kit using bovine serum albumin (BSA) as a standard, electrophoresed on sodium dodecyl sulfate-polyacrylamide gels (Bio-Rad, Hercules, CA, USA), and then transferred to polyvinylidene difluoride (PVDF) membranes (Immobilon-P; Millipore, Burlington, MA, USA) using the Pierce G2 Fast Blotter (Thermo Fisher Scientific Inc, USA) at 100 V for 60 min in a standard semi-dry system. […]

Structures are written as SMILES. Read-outs that look alike come from different tables or passages of the source.

T2 sequence (P53341 whole entry): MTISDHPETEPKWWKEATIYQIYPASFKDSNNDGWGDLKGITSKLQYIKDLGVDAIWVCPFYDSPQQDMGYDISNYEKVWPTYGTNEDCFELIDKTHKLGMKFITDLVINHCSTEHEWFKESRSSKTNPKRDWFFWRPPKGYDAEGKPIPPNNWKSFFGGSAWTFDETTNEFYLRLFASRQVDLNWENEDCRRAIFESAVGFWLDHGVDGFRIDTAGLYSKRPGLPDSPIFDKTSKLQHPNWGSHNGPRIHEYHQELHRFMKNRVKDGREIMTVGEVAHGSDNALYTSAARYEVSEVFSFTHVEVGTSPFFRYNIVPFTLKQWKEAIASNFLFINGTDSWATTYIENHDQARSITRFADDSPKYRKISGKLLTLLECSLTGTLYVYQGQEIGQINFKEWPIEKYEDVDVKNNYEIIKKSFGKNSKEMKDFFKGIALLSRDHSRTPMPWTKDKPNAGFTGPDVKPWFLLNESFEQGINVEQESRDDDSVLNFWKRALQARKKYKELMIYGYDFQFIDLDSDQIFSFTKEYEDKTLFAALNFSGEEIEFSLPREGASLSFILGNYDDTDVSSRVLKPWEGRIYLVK

Regarding `OCc1c(Br)c(O)c(O)c(Br)c1Br` [Compound 1, 2,3,6-Tribromo-4,5-dihydroxybenzyl alcohol], in series [1], the IC50 worked out at 7740 ± 140 nM. Moreover, on yeast α-glucosidase [2], the IC50 is 2630 ± 110 nM and the “Enhancement of α-glucosidase inhibitory activity compared to 2” value is reported as 2.5 fold. Besides, in series [3], the inhibition constant Ki stood at 1190 nM and the “PTP1B Inhibition Type” value is given as “Mixed-type”. Further, on yeast α-glucosidase [4], the affinity, expressed as Ki, was 1920 nM and the “α-Glucosidase Inhibition Type” value is given as “Noncompetitive”. Besides, the “Cytotoxicity (cell viability, MTT) in HepG2 cells” value in the series on HepG2 cells is recorded as “slightly toxic effect at 100 μM”. In [5], the “Insulin-stimulated glucose uptake compared with rosiglitazone 10 µM (112%)” value is reported as “comparable”. The IC50 on α-glucosidase is 11000 nM.
In the case of `COCc1c(Br)c(O)c(O)c(Br)c1Br` [Compound 2, 2,3,6-Tribromo-4,5-dihydroxybenzyl methyl ether], the values for the IC50 (in series [1]; against yeast α-glucosidase [2]; in the series with PTP1B) were 8500 ± 450 nM, 7240 ± 20 nM and 3900 nM, respectively. The inhibition constant Ki in series [3] is 2400 nM; on yeast α-glucosidase [4] it was 5540 nM. Besides, the “PTP1B Inhibition Type” value in series [3] is recorded as “Mixed-type”. Also, on yeast α-glucosidase [4], the “α-Glucosidase Inhibition Type” value is on record as “Noncompetitive”. In the series on HepG2 cells, the “Cytotoxicity (cell viability, MTT) in HepG2 cells” value is recorded as “did not show toxicity until they were used at a concentration of 100 μM”. Moreover, in series [5], the “Insulin-stimulated glucose uptake compared with rosiglitazone 10 µM (112%)” value is given as “comparable”.
For `Oc1c(O)c(Br)c(COCc2c(Br)c(O)c(O)c(Br)c2Br)c(Br)c1Br` [Compound 3, Bis-(2,3,6-tribromo-4,5-dihydroxybenzylmethyl ether)], the IC50 in series [1] (mean ± SD, n = 3, read-out: PTP1B IC50) was 5290 ± 80 nM; on yeast α-glucosidase [2] (mean ± SD, n = 3, read-out: α-Glucosidase IC50), 1920 ± 20 nM; at α-glucosidase it was 30 nM. In addition, the “Enhancement of α-glucosidase inhibitory activity compared to 2” value at yeast α-glucosidase [2] is reported as 3.8 fold. For the same compound, the Ki stood at 2250 nM in series [3] (determined from Dixon plots, read-out: PTP1B Ki) and 210 nM at yeast α-glucosidase [4] (determined from Dixon plots, read-out: α-Glucosidase Ki). Besides, in [3], the “PTP1B Inhibition Type” value is reported as “Competitive”. Moreover, at yeast α-glucosidase [4], the “α-Glucosidase Inhibition Type” value is “Mixed-type”. Moreover, the “Insulin-stimulated glucose uptake compared with rosiglitazone 10 µM” value in [5] (10 µM) is listed as “greater effect than rosiglitazone”. Further, the “Effect on PTP1B expression level” value in series [6] is “excellent ability to reduce PTP1B expression level”.
For `CN(CCOc1ccc(CC2SC(=O)NC2=O)cc1)c1ccccn1` (stereo not drawn) [Rosiglitazone, rosiglitazone, reference compound], the “Insulin-stimulated glucose uptake (2-NBDG)” value in series [5] (10 µM, relative to normal control) is given as 112%.
